{"source": "patent US8741897B2", "about": "“Glucocorticoid mimetics, methods of making them, pharmaceutical compositions and uses thereof” (Boehringer Ingelheim Pharmaceuticals Inc., priority 2003, dated 2014)", "key": {"[1]": {"test_system": "glucocorticoid receptor function", "assay": "one or more of the above assays (GR binding and glucocorticoid receptor cell assays: aromatase, IL-6, TAT, MMTV-Luc, IL-8, ICAM-Luc)", "type": "cell-based", "conditions": "assay not specified per compound"}, "[2]": {"test_system": "Human osteosarcoma MG-63 cells", "assay": "Inhibition of osteocalcin production from osteoblast cell line MG-63", "type": "cell-based", "conditions": "Vitamin D 10 nM, 48 hours", "procedure": "7. Inhibition of Osteocalcin Production from Osteoblast Cell Line MG-63\nThe next day, wells are replaced with fresh media. Cells are treated with Vitamin D (Sigma, Cat. No. D1530) to a final concentration of 10 nM, and with the test compounds in concentrations of 10^−6 M to 10^−9 M, in a total volume of 200 μL per well. Samples are done in duplicates. […] Positive control wells receive Vitamin D only, without compounds, and represent maximum (100%) amount of osteocalcin production. Plates are incubated at 37° C. incubator for 48 hours and supernatants are harvested at the end of incubation. Amounts of osteocalcin in the supernatants are determined by the Glype osteocalcin ELISA kit (Zymed, Cat. No. 99-0054) according to manufacture's protocol. Inhibition of osteocalcin by test compounds is expressed in percentage relative to positive controls. IC50 values of the test compounds are derived by non-lineal curve fitting."}, "[3]": {"target": "T1, human glucocorticoid receptor (GR) complex (Homo sapiens, UniProt P04150)", "T1 construct": "made in house; host or cells: insect expression system (baculovirus lysate)", "T1 sequence (P04150 1-777)": "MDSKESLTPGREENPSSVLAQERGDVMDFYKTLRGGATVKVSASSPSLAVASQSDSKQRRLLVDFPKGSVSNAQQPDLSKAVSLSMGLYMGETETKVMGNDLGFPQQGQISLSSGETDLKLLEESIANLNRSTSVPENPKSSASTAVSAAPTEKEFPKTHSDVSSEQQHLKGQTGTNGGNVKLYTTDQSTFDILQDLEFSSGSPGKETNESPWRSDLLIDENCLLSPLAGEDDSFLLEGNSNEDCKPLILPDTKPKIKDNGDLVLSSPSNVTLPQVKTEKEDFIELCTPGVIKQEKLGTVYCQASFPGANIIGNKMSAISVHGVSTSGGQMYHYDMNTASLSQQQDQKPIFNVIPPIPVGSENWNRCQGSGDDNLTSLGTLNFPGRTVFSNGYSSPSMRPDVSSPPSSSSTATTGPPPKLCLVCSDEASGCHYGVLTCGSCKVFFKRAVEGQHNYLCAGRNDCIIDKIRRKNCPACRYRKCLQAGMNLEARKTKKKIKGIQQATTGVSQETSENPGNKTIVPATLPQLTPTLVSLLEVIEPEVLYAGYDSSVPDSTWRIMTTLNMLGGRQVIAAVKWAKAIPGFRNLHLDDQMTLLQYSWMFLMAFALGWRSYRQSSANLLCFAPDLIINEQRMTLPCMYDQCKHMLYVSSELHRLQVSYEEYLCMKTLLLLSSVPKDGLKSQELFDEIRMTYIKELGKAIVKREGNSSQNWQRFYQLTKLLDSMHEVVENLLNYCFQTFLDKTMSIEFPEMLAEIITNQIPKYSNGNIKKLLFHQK", "assay": "Glucocorticoid receptor competitive binding assay (fluorescence polarization, TAMRA-labeled dexamethasone probe)", "conditions": "compounds of Formula (IA)", "how_it_was_run": "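Fluorescence-polarization competition against 15 nM TAMRA-dexamethasone (stock added to the mix) for human GR complex from baculovirus lysate diluted 1:170. Buffer: 10 mM TES, 50 mM KCl, 20 mM Na2MoO4, 1.5 mM EDTA, 0.04% CHAPS, 10% glycerol, 1 mM DTT, pH 7.4. IC50 from 4-parameter logistic fit.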"}}, "data": [{"compound": "CN(C)c1cc2cc(CC(O)(CC(C)(C)c3cc(F)ccc3O)C(F)(F)F)[nH]c2cn1", "note": "(centres unmarked) [2-[3-(5-Dimethylamino-1H-pyrrolo[2,3-c]pyridin-2-ylmethyl)-4,4,4-trifluoro-3-hydroxy-1,1-dimethylbutyl]-4-fluorophenol]", "values": [{"measurement": "activity as agonists of the glucocorticoid receptor function in one or more of the above assays", "setting": "[1]", "result": "potent agonists"}, {"measurement": "inhibit the vitamin D stimulated production of osteocalcin", "setting": "[2]", "result": "inhibit"}]}, {"compound": "CC(C)(CC(O)(Cc1cc2cc(N3CCOCC3)ncc2[nH]1)C(F)(F)F)c1cccc(Br)c1", "note": "(centres unmarked) [4-(3-Bromophenyl)-1,1,1-trifluoro-4-methyl-2-(5-morpholin-4-yl-1H-pyrrolo[2,3-c]pyridin-2-ylmethyl)pentan-2-ol]", "values": [{"measurement": "activity as agonists of the glucocorticoid receptor function in one or more of the above assays", "setting": "[1]", "result": "potent agonists"}, {"measurement": "inhibit the vitamin D stimulated production of osteocalcin", "setting": "[2]", "result": "inhibit"}]}, {"compound": "CC(C)(CC(O)(Cc1cc2cc(-c3cccnc3)ccc2[nH]1)C(F)(F)F)c1cc(F)cc2c1OCC2", "note": "(centres unmarked)", "values": [{"measurement": "inhibit the vitamin D stimulated production of osteocalcin", "setting": "[2]", "result": "inhibit"}]}, {"compound": "COc1ccc(F)cc1C(C)(C)CC(O)(Cc1cc2cc(-c3ccccc3)ncc2[nH]1)C(F)(F)F", "note": "(centres unmarked) [1,1,1-Trifluoro-4-(5-fluoro-2-methoxyphenyl)-4-methyl-2-(5-phenyl-1H-pyrrolo[2,3-c]pyridin-2-ylmethyl)pentan-2-ol]", "values": [{"measurement": "activity as agonists of the glucocorticoid receptor function in one or more of the above assays", "setting": "[1]", "result": "potent agonists"}, {"measurement": "inhibit the vitamin D stimulated production of osteocalcin", "setting": "[2]", "result": "inhibit"}]}, {"compound": "CCN(C)c1cc2cc(CC(O)(CC(C)(C)c3cc(F)ccc3C)C(F)(F)F)[nH]c2cn1", "note": "(centres unmarked) [2-[5-(Ethylmethylamino)-1H-pyrrolo[2,3-c]pyridin-2-ylmethyl]-1,1,1-trifluoro-4-(5-fluoro-2-methylphenyl)-4-methylpentan-2-ol]", "values": [{"measurement": "activity as agonists of the glucocorticoid receptor function in one or more of the above assays", "setting": "[1]", "result": "potent agonists"}, {"measurement": "inhibit the vitamin D stimulated production of osteocalcin", "setting": "[2]", "result": "inhibit"}]}, {"compound": "CC(C)(CC(O)(Cc1cc2cc(N3CCCCC3)ncc2[nH]1)C(F)(F)F)c1cc(S(C)(=O)=O)cc2c1OCC2", "note": "(centres unmarked) [1,1,1-Trifluoro-4-(5-methanesulfonyl-2,3-dihydrobenzofuran-7-yl)-4-methyl-2-(5-piperidin-1-yl-1H-pyrrolo[2,3-c]pyridin-2-ylmethyl)pentan-2-ol]", "values": [{"measurement": "activity as agonists of the glucocorticoid receptor function in one or more of the above assays", "setting": "[1]", "result": "potent agonists"}, {"measurement": "inhibit the vitamin D stimulated production of osteocalcin", "setting": "[2]", "result": "inhibit"}]}, {"compound": "Cc1ccc(F)cc1C(C)(C)CC(O)(Cc1cc2cc(N3CCOCC3)ncc2[nH]1)C(F)(F)F", "note": "(centres unmarked) [1,1,1-Trifluoro-4-(5-fluoro-2-methylphenyl)-4-methyl-2-(5-morpholin-4-yl-1H-pyrrolo[2,3-c]pyridin-2-ylmethyl)pentan-2-ol]", "values": [{"measurement": "inhibit the vitamin D stimulated production of osteocalcin", "setting": "[2]", "result": "inhibit"}]}, {"compound": "CC(C)(CC(O)(Cc1cc2cc(-c3ccccc3)ncc2[nH]1)C(F)(F)F)c1cc(Cl)cc2c1OCC2", "note": "(centres unmarked) [4-(5-Chloro-2,3-dihydrobenzofuran-7-yl)-1,1,1-trifluoro-4-methyl-2-(5-phenyl-1H-pyrrolo[2,3-c]pyridin-2-ylmethyl)pentan-2-ol]", "values": [{"measurement": "activity as agonists of the glucocorticoid receptor function in one or more of the above assays", "setting": "[1]", "result": "potent agonists"}, {"measurement": "inhibit the vitamin D stimulated production of osteocalcin", "setting": "[2]", "result": "inhibit"}]}, {"compound": "COc1ccc(-c2cncnc2)cc1C(C)(C)CC(O)(Cc1cc2cc(N3CCCCC3)ncc2[nH]1)C(F)(F)F", "note": "(centres unmarked) [1,1,1-Trifluoro-4-(2-methoxy-5-pyrimidin-5-ylphenyl)-4-methyl-2-(5-piperidin-1-yl-1H-pyrrolo[2,3-c]pyridin-2-ylmethyl)pentan-2-ol]", "values": [{"measurement": "activity as agonists of the glucocorticoid receptor function in one or more of the above assays", "setting": "[1]", "result": "potent agonists"}, {"measurement": "inhibit the vitamin D stimulated production of osteocalcin", "setting": "[2]", "result": "inhibit"}]}, {"compound": "COc1ccc(-c2cccnc2)cc1C(C)(C)CC(O)(Cc1cc2cc(N3CCCCC3)ncc2[nH]1)C(F)(F)F", "note": "(centres unmarked) [1,1,1-Trifluoro-4-(2-methoxy-5-pyridin-3-ylphenyl)-4-methyl-2-(5-piperidin-1-yl-1H-pyrrolo[2,3-c]pyridin-2-ylmethyl)pentan-2-ol]", "values": [{"measurement": "activity as agonists of the glucocorticoid receptor function in one or more of the above assays", "setting": "[1]", "result": "potent agonists"}, {"measurement": "inhibit the vitamin D stimulated production of osteocalcin", "setting": "[2]", "result": "inhibit"}]}, {"compound": "CC(C)(CC(O)(Cc1cc2cc(O)ncc2[nH]1)C(F)(F)F)c1cc(-c2ccccc2)ccc1O", "note": "(centres unmarked) [2-[2-Hydroxy-4-(4-hydroxybiphenyl-3-yl)-4-methyl-2-trifluoromethylpentyl]-1H-pyrrolo[2,3-c]pyridin-5-ol]", "values": [{"measurement": "activity as agonists of the glucocorticoid receptor function in one or more of the above assays", "setting": "[1]", "result": "potent agonists"}, {"measurement": "inhibit the vitamin D stimulated production of osteocalcin", "setting": "[2]", "result": "inhibit"}]}, {"compound": "CC(C)(CC(O)(Cc1cc2cnccc2[nH]1)C(F)(F)F)c1cc(Br)cc2c1OCC2", "note": "(centres unmarked) [4-(5-Bromo-2,3-dihydrobenzofuran-7-yl)-1,1,1-trifluoro-4-methyl-2-(1H-pyrrolo[3,2-c]pyridin-2-ylmethyl)pentan-2-ol]", "values": [{"measurement": "activity in the GR binding assay", "setting": "[3]", "result": "potent activity"}, {"measurement": "activity as agonists of the glucocorticoid receptor function in one or more of the above assays", "setting": "[1]", "result": "potent agonists"}]}, {"compound": "Cc1ccc(F)cc1C(C)(C)CC(O)(Cc1cc2cnccc2s1)C(F)(F)F", "note": "(centres unmarked) [1,1,1-Trifluoro-4-(5-fluoro-2-methylphenyl)-4-methyl-2-thieno[3,2-c]pyridin-2-ylmethylpentan-2-ol]", "values": [{"measurement": "activity in the GR binding assay", "setting": "[3]", "result": "potent activity"}, {"measurement": "activity as agonists of the glucocorticoid receptor function in one or more of the above assays", "setting": "[1]", "result": "potent agonists"}]}, {"compound": "Cc1cc(C#N)cc2[nH]c(CC(O)(CC(C)(C)c3cccc4c3OCO4)C(F)(F)F)cc12", "note": "(centres unmarked) [2-(4-Benzo[1,3]dioxol-4-yl-2-hydroxy-4-methyl-2-trifluoromethylpentyl)-4-methyl-1H-indole-6-carbonitrile]", "values": [{"measurement": "activity in the GR binding assay", "setting": "[3]", "result": "potent activity"}, {"measurement": "activity as agonists of the glucocorticoid receptor function in one or more of the above assays", "setting": "[1]", "result": "potent agonists"}]}, {"compound": "CC(C)(CC(O)(Cc1ccnc2ccccc12)C(F)(F)F)c1cccc(F)c1", "note": "(centres unmarked) [1,1,1-Trifluoro-4-(3-fluorophenyl)-4-methyl-2-quinolin-4-ylmethylpentan-2-ol]", "values": [{"measurement": "activity in the GR binding assay", "setting": "[3]", "result": "potent activity"}, {"measurement": "activity as agonists of the glucocorticoid receptor function in one or more of the above assays", "setting": "[1]", "result": "potent agonists"}]}, {"compound": "Cc1ccc(F)cc1C(C)(C)CC(O)(Cc1cc2cc(N3CCCCC3)ncc2[nH]1)C(F)(F)F", "note": "(centres unmarked) [1,1,1-Trifluoro-4-(5-fluoro-2-methylphenyl)-4-methyl-2-(5-piperidin-1-yl-1H-pyrrolo[2,3-c]pyridin-2-ylmethyl)pentan-2-ol]", "values": [{"measurement": "inhibit the vitamin D stimulated production of osteocalcin", "setting": "[2]", "result": "inhibit"}]}, {"compound": "COc1ccc(F)cc1C(C)(C)CC(O)(Cc1cc2c(C)nc(C)nc2[nH]1)C(F)(F)F", "note": "(centres unmarked) [2-(2,4-Dimethyl-7H-pyrrolo[2,3-d]pyrimidin-6-ylmethyl)-1,1,1-trifluoro-4-(5-fluoro-2-methoxyphenyl)-4-methylpentan-2-ol]", "values": [{"measurement": "activity in the GR binding assay", "setting": "[3]", "result": "potent activity"}, {"measurement": "activity as agonists of the glucocorticoid receptor function in one or more of the above assays", "setting": "[1]", "result": "potent agonists"}]}, {"compound": "CC(C)(CC(O)(Cc1cc2cc([N+](=O)[O-])ccc2[nH]1)C(F)(F)F)c1cc(F)ccc1O", "note": "(centres unmarked) [4-Fluoro-2-[4,4,4-trifluoro-3-hydroxy-1,1-dimethyl-3-(5-nitro-1H-indol-2-ylmethyl)butyl]phenol]", "values": [{"measurement": "activity in the GR binding assay", "setting": "[3]", "result": "potent activity"}, {"measurement": "activity as agonists of the glucocorticoid receptor function in one or more of the above assays", "setting": "[1]", "result": "potent agonists"}]}, {"compound": "COc1ccc(F)cc1C(C)(C)CC(O)(Cc1cc2cc(C(=O)N3CCOCC3)ccc2[nH]1)C(F)(F)F", "note": "(centres unmarked) [{2-[4-(5-Fluoro-2-methoxyphenyl)-2-hydroxy-4-methyl-2-trifluoromethylpentyl]-1H-indol-5-yl}morpholin-4-ylmethanone]", "values": [{"measurement": "activity in the GR binding assay", "setting": "[3]", "result": "potent activity"}, {"measurement": "activity as agonists of the glucocorticoid receptor function in one or more of the above assays", "setting": "[1]", "result": "potent agonists"}]}]}
